In PubChem BioAssay (NCI):
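Compound exposure: 48 hours, 5 concentrations, 96-well plates. GI50 = concentration required for 50% inhibition of growth. The concentration for full growth arrest is given as TGI.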

What was measured:
Test in all cases: growth of human tumour cells (NCI), 48 h
[1] = tested on: CCRF-CEM leukemia
[2] = tested on: HCC-2998 colon
[3] = tested on: NCI-H23 lung
[4] = tested on: EKVX NSCLC
[5] = tested on: OVCAR-8 ovarian
[6] = tested on: IGROV1 ovarian
[7] = tested on: LOX IMVI melanoma
[8] = tested on: ACHN renal
[9] = tested on: RXF 393 renal
[10] = tested on: MCF7 breast

Compound	TGI [1]	TGI [2]	TGI [3]	TGI [4]	TGI [5]	TGI [6]	TGI [7]	TGI [8]	TGI [9]	TGI [10]	GI50 [8]	GI50 [4]	GI50 [9]	GI50 [3]	GI50 [5]	GI50 [6]
CCOC(=O)CNC(=O)c1[nH]cnc1/N=N/N(C)C	> 100 µM	> 100 µM	> 100 µM	> 100 µM	> 100 µM	> 100 µM	> 100 µM	> 100 µM								
CC(=O)O[C@H]1CC[C@@H](OC(C)=O)[C@H]2[C@H](O)[C@H](O)[C@@H]1n1c(=O)n(-c3ccccc3)c(=O)n12	> 100 µM		> 100 µM	> 100 µM	> 100 µM	> 100 µM	> 100 µM	> 100 µM	> 100 µM	> 100 µM						
Cc1ccc(S(=O)(=O)OCCN(CCOS(=O)(=O)c2ccc(C)cc2)c2ccc(C=O)cc2)cc1	> 100 µM	85.5 µM	> 100 µM	91 µM	> 100 µM	> 100 µM	> 100 µM	> 100 µM	33.2 µM	92.9 µM						
BrC1(c2ccccc2)C[n+]2c(-c3ccccc3)cc(-c3ccccc3)cc2-c2ccccc21 (centres undefined)	21.2 µM	0.742 µM	34.5 µM	18.8 µM	6.37 µM	5.14 µM	1.82 µM	14 µM	0.635 µM	0.735 µM						
NCCCNc1nc2ccccc2c2c(=O)c3cc(Cl)ccc3sc12								2.92 µM			1.57 µM					
CCCCCCCCCCCCOCC(COP(=O)(O)OCCN=[N+]=[N-])OC(=O)CCCCCCCCCCC (centres undefined)		> 100 µM	> 100 µM		> 100 µM			> 100 µM	> 100 µM	> 100 µM						
NC(=O)CSc1nc2ccccc2c(=O)n1N		> 100 µM	> 100 µM	> 100 µM	> 100 µM	> 100 µM	> 100 µM	> 100 µM	> 100 µM	> 100 µM						
C/C(CCN(C)C)=N/O	7.14 µM	25.2 µM	25.5 µM	28.8 µM	22.8 µM	39.2 µM	16.3 µM	22.3 µM	15.7 µM							
CC(C)CNP(=O)(NCC(C)C)Oc1ccc(CC(NC(=O)OCc2ccccc2)C(=O)OCc2ccccc2)cc1 (centres undefined)	32.8 µM	30.7 µM	32.3 µM	77.2 µM	32.7 µM	> 100 µM	32.5 µM	30.6 µM	36.2 µM	24.7 µM						
CCOC(=O)N1CCNCCN(C(=O)OCC)CCNCC1	> 100 µM	> 100 µM	> 100 µM	> 100 µM	> 100 µM	> 100 µM	> 100 µM	> 100 µM	> 100 µM	> 100 µM						
CC(C)Oc1cccc(N2C(CCc3c[nH]c4ccc(Br)cc34)=NS(=O)(=O)c3cnccc32)c1	> 100 µM	> 100 µM	> 100 µM	> 100 µM	> 100 µM		> 100 µM	> 100 µM	> 100 µM	> 100 µM						
CC(C)(C)C(=O)c1c(O)c2ccccc2c2ccccc2c1=O	> 100 µM		> 100 µM	> 100 µM	> 100 µM		> 100 µM	> 100 µM		> 100 µM						
COc1ccc(/C(C=O)=C(\Cl)c2ccc(OC)c(OC)c2)cc1	> 100 µM	> 100 µM	> 100 µM	> 100 µM	> 100 µM	> 100 µM	> 100 µM	> 100 µM	> 100 µM							
C=CCOC(C)(C)C1=CCC(C)CC1 (centres undefined)		> 100 µM	> 100 µM	> 100 µM	> 100 µM	> 100 µM		> 100 µM	> 100 µM	> 100 µM						
Cc1cc2nc(N3C(=O)/C(=C/Cc4ccco4)N=C3c3ccccc3)sc2cc1C	28.1 µM	55.7 µM		> 100 µM	> 100 µM	> 100 µM	> 100 µM	96.3 µM	59.1 µM	40.4 µM						
Cn1c2c(c3c(=O)[nH]ncc31)Cc1ccccc1-2	> 100 µM		> 100 µM	> 100 µM	62.8 µM	33.7 µM	75.1 µM	34.7 µM	32.4 µM	56.5 µM						
O=C(OCCN=c1c2ccccc2ccc2ccccc12)c1cc([N+](=O)[O-])cc([N+](=O)[O-])c1	> 100 µM		> 100 µM	> 100 µM	> 100 µM	> 100 µM	> 100 µM	> 100 µM	> 100 µM	> 100 µM						
COC(=O)c1c(O)ccc2c1c1c(n2Cc2ccc(OC)cc2)C(=O)c2ccccc2C1	89.4 µM		> 100 µM		> 100 µM	> 100 µM	> 100 µM		79.9 µM	> 100 µM						
CN(Cc1cnc2nc(N)nc(N)c2n1)c1ccc(C(=O)NC(CCC(=O)O)C(=O)O)c2ccccc12 (centres undefined)	> 1000 µM		> 1000 µM	> 1000 µM	> 1000 µM	> 1000 µM	> 1000 µM	> 1000 µM	> 1000 µM	> 1000 µM		> 1000 µM	> 1000 µM			
NC1CCC2(O)c3ccccc3C2C1 (centres undefined)	> 100 µM		> 100 µM	> 100 µM	> 100 µM		> 100 µM	> 100 µM	> 100 µM							
CC(C)=CC1C(C(=O)OCc2cc3c(cc2Cl)OCO3)C1(C)C (centres undefined)	> 100 µM	58 µM	> 100 µM	80 µM	> 100 µM	87.5 µM	33.5 µM	> 100 µM	> 100 µM							
O=C(/C=C\c1ccccc1)Oc1ccc(/C=C2\CCC/C(=C\c3ccc(OC(=O)/C=C\c4ccccc4)cc3)C2=O)cc1	> 100 µM	> 100 µM	> 100 µM	> 100 µM	> 100 µM		> 100 µM	> 100 µM		> 100 µM						
O=c1[nH]ncc2[nH]c3c(c12)CCc1ccccc1-3	> 100 µM		> 100 µM	30.2 µM	> 100 µM	44.3 µM	> 100 µM	> 100 µM	42 µM							
CCC12CCC[C@@]13C=C[C@H](O3)C(C)(C)C2=O (some centres undefined)	> 100 µM	> 100 µM	> 100 µM	> 100 µM	> 100 µM	> 100 µM	> 100 µM	> 100 µM	> 100 µM							

Compound	TGI [1]	TGI [2]	TGI [3]	TGI [4]	TGI [5]	TGI [6]	TGI [7]	TGI [8]	TGI [9]	TGI [10]	GI50 [8]	GI50 [4]	GI50 [9]	GI50 [3]	GI50 [5]	GI50 [6]
O=C(N/N=C/c1ccccc1)c1c(F)c(F)c(F)c(F)c1F	> 100 µM	> 100 µM	> 100 µM	> 100 µM	> 100 µM	> 100 µM	> 100 µM	> 100 µM	> 100 µM							
CC(=O)OC12c3ccccc3C(c3ccccc31)C1C(=O)N(N=C(C)C)C(=O)C12 (centres undefined)	> 100 µM	> 100 µM	> 100 µM	> 100 µM	> 100 µM	> 100 µM	> 100 µM		> 100 µM	> 100 µM						
COc1ccc(S(=O)(=O)NC(CCC(=O)NC(N)=O)C(=O)NC(N)=O)cc1 (centres undefined)	> 100 µM	> 100 µM	> 100 µM	> 100 µM	> 100 µM	> 100 µM	> 100 µM	> 100 µM		> 100 µM						
CCOC(=O)C(Cc1ccc(N=NN(C)C)cc1)NC(=O)CC1c2ccccc2-c2ccccc21 (centres undefined)	> 100 µM	> 100 µM	> 100 µM	> 100 µM	> 100 µM	> 100 µM	> 100 µM	> 100 µM								
O=[N+]([O-])/C=C/c1cc(Cl)c(/C=C/[N+](=O)[O-])cc1Cl	> 100 µM	3.99 µM	22.5 µM	5.02 µM		8.62 µM	2.99 µM	2.97 µM	3.14 µM	> 33.2 µM						
CC(=O)c1c(-c2ccc(Cl)cc2)c(C#N)c(=S)n(C2OC(CO)C(O)C(O)C2O)c1C (centres undefined)	63.7 µM	> 100 µM	> 100 µM		> 100 µM	> 100 µM	> 100 µM	> 100 µM	> 100 µM							
CCc1c(O)nc(Nc2nc3ccccc3[nH]2)[nH]c1=O	> 100 µM	> 100 µM	> 100 µM		> 100 µM	> 100 µM	> 100 µM	> 100 µM	> 100 µM	> 100 µM						
[C-]#[O+].[Cl][Sn]([Cl])[Cl].[Cl][Sn]([Cl])[Cl].[Pt].c1cnc2c(c1)ccc1cccnc12	> 29.8 µM	13.1 µM	> 100 µM	44.4 µM	> 100 µM	35.7 µM	15.8 µM			56.4 µM						
CC(=O)CCC1(C(=O)OCC(C)C)CCCC1=O (centres undefined)	> 100 µM		> 100 µM	> 100 µM	> 100 µM	> 100 µM	> 100 µM	> 100 µM	> 100 µM							
O=C(Nc1cccc2ccccc12)c1cc2ccccc2oc1=O	> 100 µM	> 100 µM	> 100 µM		> 100 µM	> 100 µM	> 100 µM	> 100 µM	> 100 µM	> 100 µM						
CC1CC(c2ccccc2)=Nc2ccccc2S1 (centres undefined)	> 100 µM	> 100 µM	> 100 µM	> 100 µM	> 100 µM	> 100 µM	> 100 µM	> 100 µM	> 100 µM							
COc1cccc(/C=N/[N-]C(N)=O)c1[O-].[Cu+2].[OH3+]		31 µM	21.9 µM	34.9 µM	24.4 µM	19.6 µM	30.6 µM	24.8 µM	36.2 µM					9.7 µM	10.7 µM	6.14 µM
COc1c(OC2OC(CO)C(O)C(O)C2O)cc2c(c1OC)-c1ccc(OC)c(=O)cc1C(NC(C)=O)CC2 (centres undefined)	> 100 µM	> 100 µM	> 100 µM	> 100 µM	> 100 µM	> 100 µM	> 100 µM	> 100 µM	> 100 µM							
Cc1nc(C(=Nc2ccc(Br)cc2)Nn2cnnc2)no1	> 100 µM	> 100 µM	> 100 µM	> 100 µM	> 100 µM	> 100 µM		> 100 µM	> 100 µM	> 100 µM						
COC(=O)CCC(C)[C@H]1CCC2C3CC[C@@H]4CC5(CC[C@]4(C)C3C[C@H](OC(C)=O)[C@@]21C)OOC1(CCCCC1)OO5 (some centres undefined)	> 100 µM	9.2 µM	> 100 µM	7.37 µM	> 100 µM	5.48 µM		> 100 µM	> 100 µM	> 100 µM						
CC(C)(NO)/C(=N\O)c1ccccc1	> 10 µM	> 10 µM	> 10 µM	> 10 µM	> 10 µM			> 10 µM	> 10 µM	> 10 µM						
CC[C@]1(c2ccc3c(c2)OCO3)C=[N+]([O-])O[C@H](OC2CCCC2(c2ccccc2)c2ccccc2)[C@@H]1OC(C)=O (some centres undefined)	> 64.6 µM	4.05 µM	8.68 µM	12.8 µM		> 21.5 µM	> 22.4 µM	9.75 µM	2.63 µM	> 24.1 µM						
COc1ccc(C(=CCC(C)C2CCC3[C@@H]4C(OC(C)=O)CC5CC(OC(C)=O)CC[C@]5(C)C4CC(OC(C)=O)[C@]23C)c2ccc(OC)cc2)cc1 (some centres undefined)	> 100 µM	> 100 µM		> 100 µM	> 100 µM	> 100 µM		> 100 µM		> 100 µM						
O=C(O)C1CCC(=O)N1C(=O)COc1cc(Cl)c(Cl)cc1Cl (centres undefined)			> 100 µM	> 100 µM	> 100 µM	> 100 µM	> 100 µM	> 100 µM								
COc1cc(C2c3cc4c(cc3[C@@H](Nc3ccc(F)cc3)C3COC[C@H]23)OCO4)cc(OC)c1O (some centres undefined)	8.45 µM	> 25 µM		> 25 µM	> 25 µM	> 25 µM		6.21 µM		> 25 µM						
COc1cc2c(cc1OC)C1=C(C=O)c3ccc(OC)c(OC)c3C(O)N1CC2 (centres undefined)	> 100 µM	31.7 µM	57.1 µM	> 100 µM				> 100 µM		> 100 µM						
C[n+]1c2ccccc2n2c3ccccc3c(NCCCn3ccnc3)c(C#N)c21		3.1 µM	9.13 µM	24.1 µM	8.43 µM		2.51 µM	> 27.7 µM	3.48 µM	> 34 µM						
CC(C)C(NCc1c2ccccc2[n+](C)c2ccccc12)C(=O)O (centres undefined)		29.3 µM	27.2 µM	24.2 µM	15.1 µM	25.5 µM	17.3 µM	16.4 µM	12.5 µM							
